Converted amounts (≈) assume the structure as drawn.
Tests used:
Format in all cases: cell-based
[1] = tested on: Ps. aeruginosa NCTC 10490; assay: MIC by agar dilution, Ps. aeruginosa NCTC 10490; settings: Pseudomonas aeruginosa, NCTC10490, 17 h, Mueller-Hinton agar, read-out: Minimal Inhibitory Concentration (MIC)
In short: (§1)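 Agar dilution in Mueller-Hinton agar with two-fold compound dilutions. Each strain is inoculated at 10^6 CFU per ml and incubated at 35°-37° C. for 17±1 hours. Ceftazidime and cefotaxime serve as controls.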

K. pneumoniae NCTC 9632 = assay: MIC by agar dilution, K. pneumoniae NCTC 9632; settings: Klebsiella pneumoniae, NCTC9632, 17 h; K. pneumoniae NCTC 9632; agar dilution, Mueller-Hinton agar; read-out: Minimal Inhibitory Concentration (MIC)
In short: as §1

E. coli NIHJ JC-2 = assay: MIC by agar dilution, E. coli NIHJ JC-2; settings: Escherichia coli, NIHJJC2, 17 h; E. coli NIHJ JC-2; agar dilution, Mueller-Hinton agar; read-out: Minimal Inhibitory Concentration (MIC)
In short: as §1

M. morganii DY-1 = assay: MIC by agar dilution, M. morganii DY-1; settings: Morganella morganii, DY1, 17 h; M. morganii DY-1; agar dilution, Mueller-Hinton agar; read-out: Minimal Inhibitory Concentration (MIC)
In short: as §1

Staph. aureus C-57 = assay: MIC by agar dilution, Staph. aureus C-57; settings: Staphylococcus aureus, C57, 17 h, Mueller-Hinton agar, read-out: Minimal Inhibitory Concentration (MIC)
In short: as §1

Ent. cloacae IFO 13535 = assay: MIC by agar dilution, Ent. cloacae IFO 13535; settings: Enterobacter cloacae, IFO13535, 17 h; Ent. cloacae IFO 13535; agar dilution, Mueller-Hinton agar; read-out: Minimal Inhibitory Concentration (MIC)
In short: as §1

E. coli DY-1 = assay: MIC by agar dilution, E. coli DY-1; settings: Escherichia coli, DY1, 17 h; E. coli DY-1; agar dilution, Mueller-Hinton agar; read-out: Minimal Inhibitory Concentration (MIC)
In short: as §1

Ent. aerogenes IFO 12979 = assay: MIC by agar dilution, Ent. aerogenes IFO 12979; settings: Klebsiella aerogenes, IFO12979, 17 h, Mueller-Hinton agar, read-out: Minimal Inhibitory Concentration (MIC)
In short: as §1

P. vulgaris NCTC 8313 = assay: MIC by agar dilution, P. vulgaris NCTC 8313; settings: Proteus vulgaris, NCTC8313, 17 h; P. vulgaris NCTC 8313; agar dilution, Mueller-Hinton agar; read-out: Minimal Inhibitory Concentration (MIC)
In short: as §1

Ps. aeruginosa DY-2 = assay: MIC by agar dilution, Ps. aeruginosa DY-2; settings: Pseudomonas aeruginosa, DY2, 17 h; Ps. aeruginosa DY-2; agar dilution, Mueller-Hinton agar; read-out: Minimal Inhibitory Concentration (MIC)
In short: as §1

Staph. aureus C-5113 = assay: MIC by agar dilution, Staph. aureus C-5113; settings: Staphylococcus aureus, C5113, 17 h, Mueller-Hinton agar, read-out: Minimal Inhibitory Concentration (MIC)
In short: as §1

[2] = tested on: Ps. aeruginosa ATCC 10145; assay: MIC by agar dilution, Ps. aeruginosa ATCC 10145; settings: Pseudomonas aeruginosa, ATCC10145, 17 h, Mueller-Hinton agar, read-out: Minimal Inhibitory Concentration (MIC)
In short: as §1

Staph. aureus ATCC 6538P = assay: MIC by agar dilution, Staph. aureus ATCC 6538P; settings: Staphylococcus aureus, ATCC6538P, 17 h; Staph. aureus ATCC 6538P; agar dilution, Mueller-Hinton agar; read-out: Minimal Inhibitory Concentration (MIC)
In short: as §1

Staph. aureus C-5216 = assay: MIC by agar dilution, Staph. aureus C-5216; settings: Staphylococcus aureus, C5216, 17 h, Mueller-Hinton agar, read-out: Minimal Inhibitory Concentration (MIC)
In short: as §1

Prov. stuartii IFO 12930 = assay: MIC by agar dilution, Prov. stuartii IFO 12930; settings: Providencia stuartii, IFO12930, 17 h, Mueller-Hinton agar, read-out: Minimal Inhibitory Concentration (MIC)
In short: as §1

E. coli No. 29 = assay: MIC by agar dilution, E. coli No. 29; settings: Escherichia coli, 17 h; E. coli No. 29; agar dilution, Mueller-Hinton agar; read-out: Minimal Inhibitory Concentration (MIC)
In short: as §1

B. subtilis ATCC 6633 = assay: MIC by agar dilution, B. subtilis ATCC 6633; settings: Bacillus subtilis, ATCC6633, 17 h; B. subtilis ATCC 6633; agar dilution, Mueller-Hinton agar; read-out: Minimal Inhibitory Concentration (MIC)
In short: as §1

Staph. aureus Smith = assay: MIC by agar dilution, Staph. aureus Smith; settings: Staphylococcus aureus, 17 h, Mueller-Hinton agar, read-out: Minimal Inhibitory Concentration (MIC)
In short: as §1

[3] = tested on: S. epidermidis ATCC 12228; assay: MIC by agar dilution, S. epidermidis ATCC 12228; settings: Staphylococcus epidermidis, ATCC12228, 17 h; S. epidermidis ATCC 12228; agar dilution, Mueller-Hinton agar; read-out: Minimal Inhibitory Concentration (MIC)
In short: as §1

[4] = tested on: Ser. marcescens IFO 12648; assay: MIC by agar dilution, Ser. marcescens IFO 12648; settings: Serratia marcescens, IFO12648, 17 h; Ser. marcescens IFO 12648; agar dilution, Mueller-Hinton agar; read-out: Minimal Inhibitory Concentration (MIC)
In short: as §1

Compound | MIC [1] [µg/mL] | MIC (K. pneumoniae NCTC 9632) [µg/mL] | MIC (E. coli NIHJ JC-2) [µg/mL] | MIC (M. morganii DY-1) [µg/mL] | MIC (Staph. aureus C-57) [µg/mL] | MIC (Ent. cloacae IFO 13535) [µg/mL] | MIC (E. coli DY-1) [µg/mL] | MIC (Ent. aerogenes IFO 12979) [µg/mL] | MIC (P. vulgaris NCTC 8313) [µg/mL] | MIC (Ps. aeruginosa DY-2) [µg/mL] | MIC (Staph. aureus C-5113) [µg/mL] | MIC [2] [µg/mL] | MIC (Staph. aureus ATCC 6538P) [µg/mL] | MIC (Staph. aureus C-5216) [µg/mL] | MIC (Prov. stuartii IFO 12930) [µg/mL] | MIC (E. coli No. 29) [µg/mL] | MIC (B. subtilis ATCC 6633) [µg/mL] | MIC (Staph. aureus Smith) [µg/mL] | MIC [3] [µg/mL] | MIC [4] [µg/mL]
CON=C(C(=O)NC1C(=O)N2C(C(=O)[O-])=C(C[n+]3ccn4c(C=O)ccc4c3)CSC12)c1csc(N)n1 (stereo not drawn) [Ex. 25, 7-β-[(Z)-2-(2-aminothiazol-4-yl)-2-methoxyiminoacetamido]-3-(6-formylpyrrolo[1,2-a]pyrazinium-2-yl)methyl-3-cephem-4-carboxylate] | 0.39 (≈ 0.72 µM) | 0.05 (≈ 0.0923 µM) | 0.025 (≈ 0.0462 µM) | 0.05 (≈ 0.0923 µM) | 25 (≈ 46.2 µM) | 0.78 (≈ 1.44 µM) | 0.05 (≈ 0.0923 µM) | 0.025 (≈ 0.0462 µM) | 0.05 (≈ 0.0923 µM) | 12.5 (≈ 23.1 µM) | 3.13 (≈ 5.78 µM) | 3.13 (≈ 5.78 µM) | 0.78 (≈ 1.44 µM) | 1.56 (≈ 2.88 µM) | 0.012 (≈ 0.0222 µM) | 0.05 (≈ 0.0923 µM) | 0.39 (≈ 0.72 µM) | 3.13 (≈ 5.78 µM) | 0.1 (≈ 0.185 µM) | 0.05 (≈ 0.0923 µM)
CCON=C(C(=O)NC1C(=O)N2C(C(=O)[O-])=C(C[n+]3ccn4c(C=O)ccc4c3)CSC12)c1csc(N)n1 (stereo not drawn) [Ex. 26, 7-β-[(Z)-2-(2-aminothiazol-4-yl)2-ethoxyiminoacetamido]-3-(6-formylpyrrolo[1,2-a]pyrazinium-2-yl)methyl-3-cephem-4-carboxylate] | 1.56 (≈ 2.81 µM) | 0.2 (≈ 0.36 µM) | 0.1 (≈ 0.18 µM) | 0.2 (≈ 0.36 µM) | 100 (≈ 180 µM) | 3.13 (≈ 5.63 µM) | 0.05 (≈ 0.09 µM) | 0.05 (≈ 0.09 µM) | 0.025 (≈ 0.045 µM) | 12.5 (≈ 22.5 µM) | 3.13 (≈ 5.63 µM) | 6.25 (≈ 11.2 µM) | 1.56 (≈ 2.81 µM) | 3.13 (≈ 5.63 µM) | 0.05 (≈ 0.09 µM) | 0.05 (≈ 0.09 µM) | 0.39 (≈ 0.702 µM) | 3.13 (≈ 5.63 µM) | 0.1 (≈ 0.18 µM) | 0.1 (≈ 0.18 µM)
CON=C(C(=O)NC1C(=O)N2C(C(=O)[O-])=C(C[n+]3ccn4c(SCCN)ccc4c3)CSC12)c1csc(N)n1 (stereo not drawn) [Ex. 27, 7-β-[(Z)-2-(2-aminothiazol-4-yl)2-methoxyiminoacetamido]-3-[6-(2-aminoethylthio)pyrrolo[1,2-a]pyrazinium-2-yl]methyl-3-cephem-4-carboxylate] | 0.2 (≈ 0.34 µM) | 0.012 (≈ 0.0204 µM) | ≤ 0.006 | 0.012 (≈ 0.0204 µM) | 100 (≈ 170 µM) | 0.1 (≈ 0.17 µM) | ≤ 0.006 | ≤ 0.006 | ≤ 0.006 | 1.56 (≈ 2.65 µM) | 0.78 (≈ 1.32 µM) | 0.78 (≈ 1.32 µM) | 0.2 (≈ 0.34 µM) | 0.78 (≈ 1.32 µM) | ≤ 0.006 | ≤ 0.006 | 0.1 (≈ 0.17 µM) | 0.78 (≈ 1.32 µM) | 0.05 (≈ 0.0849 µM) | 0.012 (≈ 0.0204 µM)
CCON=C(C(=O)NC1C(=O)N2C(C(=O)[O-])=C(C[n+]3ccn4c(SCCN)ccc4c3)CSC12)c1csc(N)n1 (stereo not drawn) [Ex. 28, 7-β-[(Z)-2-(2-aminothiazol-4-yl)2-ethoxyiminoacetamido]-3-[6-(2-aminoethylthio)pyrrolo[1,2-a]pyrazinium-2-yl]methyl-3-cephem-4-carboxylate] | 0.39 (≈ 0.647 µM) | 0.05 (≈ 0.083 µM) | 0.025 (≈ 0.0415 µM) | 0.05 (≈ 0.083 µM) | 50 (≈ 83 µM) | 0.2 (≈ 0.332 µM) | 0.012 (≈ 0.0199 µM) | 0.012 (≈ 0.0199 µM) | 0.012 (≈ 0.0199 µM) | 3.13 (≈ 5.19 µM) | 0.78 (≈ 1.29 µM) | 1.56 (≈ 2.59 µM) | 0.2 (≈ 0.332 µM) | 0.78 (≈ 1.29 µM) | 0.012 (≈ 0.0199 µM) | 0.012 (≈ 0.0199 µM) | 0.1 (≈ 0.166 µM) | 0.78 (≈ 1.29 µM) | 0.05 (≈ 0.083 µM) | 0.05 (≈ 0.083 µM)
NCCSc1ccc2c[n+](CC3=C(C(=O)[O-])N4C(=O)C(NC(=O)C(=NOCF)c5csc(N)n5)C4SC3)ccn12 (stereo not drawn) [Ex. 29, 7-β-[(Z)-2-(2-aminothiazol-4-yl)2-fluoromethoxyiminoacetamido]-3-[6-(2-aminoethylthio)pyrrolo[1,2-a]pyrazinium-2-yl]methyl-3-cephem-4-carboxylat] | 0.2 (≈ 0.33 µM) | ≤ 0.006 | ≤ 0.006 | ≤ 0.006 | 25 (≈ 41.2 µM) | 0.012 (≈ 0.0198 µM) | ≤ 0.006 | ≤ 0.006 | ≤ 0.006 | 6.25 (≈ 10.3 µM) | 0.78 (≈ 1.29 µM) | 0.78 (≈ 1.29 µM) | 0.2 (≈ 0.33 µM) | 0.78 (≈ 1.29 µM) | ≤ 0.006 | ≤ 0.006 | 0.05 (≈ 0.0824 µM) | 0.78 (≈ 1.29 µM) | 0.05 (≈ 0.0824 µM) | ≤ 0.006
CON=C(C(=O)NC1C(=O)N2C(C(=O)[O-])=C(C[n+]3ccn4ccc(CO)c4c3)CSC12)c1csc(N)n1 (stereo not drawn) [Ex. 30, 7-β-[(Z)-2-(2-aminothiazol-4-yl)2-methoxyiminoacetamido]-3-(8-hydroxymethylpyrrolo[1,2-a]pyrazinium-2-yl)methyl-3-cephem-4-carboxylate] | 0.1 (≈ 0.184 µM) | 0.012 (≈ 0.0221 µM) | ≤ 0.006 | 0.012 (≈ 0.0221 µM) | 50 (≈ 92 µM) | 0.05 (≈ 0.092 µM) | ≤ 0.006 | ≤ 0.006 | 0.012 (≈ 0.0221 µM) | 3.13 (≈ 5.76 µM) | 3.13 (≈ 5.76 µM) | 0.39 (≈ 0.717 µM) | 0.2 (≈ 0.368 µM) | 0.78 (≈ 1.43 µM) | ≤ 0.006 | ≤ 0.006 | 0.1 (≈ 0.184 µM) | 0.78 (≈ 1.43 µM) | 0.05 (≈ 0.092 µM) | 0.012 (≈ 0.0221 µM)
